Assays:
[1] = tested on: Ob/ob mice; experiment: Effect of a SERCA Agonist on the Level of Blood Glucose in Ob/ob mice; assay type: in vivo, mouse; details: 50 mg/kg i.p. once a day, 5 days, fasting glucose at baseline and 4 days after administration
Experimental: Ob/ob mice (10 weeks old, n=7) were intraperitoneally (i.p.) injected with 100 μL of a solution containing 0 (vehicle) or 50 mg/kg of a test compound once a day for a total of 5 days. Fasting glucose was measured at baseline and 4 days after the administration of the test compound. Glucose levels were measured in blood samples drawn from the tail vein using a handheld glucose sensor. Compound effects on blood glucose are shown in Table 5 where A represents a 10-20% reduction in blood glucose, B represents a 21-30% reduction in blood glucose, and C represents a greater than 30% reduction in blood glucose levels.

[2] = tested on: HEK293 cells; N2a cells; experiment: Cell Rescue Assay: Protection against Thapsigargin (TG)-induced Cell-death (ALAMARBLUE); assay type: cell-based, human (HEK293); mouse (N2a); details: compound 20 μM, 2 hrs before thapsigargin (15 μM for HEK293 cells and 1 μM for N2a cells), 24 hrs; cell line not given; read-out: Cell Survival %
Experimental: Protection against Thapsigargin (TG)-induced Cell-death. Human embryonic kidney (HEK293) cells were grown in Dulbecco's Modified Eagle's Medium (DMEM) with 10% FBS and 1% antibiotic antimycotic solution (ABAM). Mouse neuroblastoma (N2a) cells were grown in 1:1 DMEM:OPTI-MEM® with 5% FBS and 1% ABAM. All cells were grown in 10% CO2 in a humidified environment of the incubator. Cells grown in 96-well plates were exposed to a test compound (20 μM) for 2 hrs before addition of thapsigargin (15 μM for HEK293 cells and 1 μM for N2a cells) to induce ER stress. After incubation in cell-culture incubator for 24 hrs, ALAMARBLUE® regent (10% v/v) was added to the wells. Fluorescence reading was taken 2 hrs after the addition of the ALAMARBLUE® regent. Cell-viability was calculated as a percentage of relative fluorescence unit (RFU) compared to control. […] The biological results are summarized in Table 2, where each compound was tested at 20 μM and where A represents a viability greater than 50%, B represents a viability greather than 10% and less than 50%, C represents a value below 10%.

[3] = tested on: CSM14.1 neuronal cells; experiment: Cell Survival Assay (thapsigargin-treated CSM14.1 neuronal cells, CELLTITER-GLO luminescence); assay type: cell-based; details: CSM14.1 cells, about 15 μM thapsigargin, overnight (about 16 to 24 hrs), 2 hrs preincubation
Experimental: CSM14.1 neuronal cells were maintained in Complete Medium at 32° C.; wherein the Complete Medium contained Dulbecco's modified eagle medium (DMEM) with 10% fetal bovine serum (FSB), 1% L-glutamine, 100 IU/mL penicillin, and 100 μg/mL streptomycin. […] Seeding was performed using a MultiDrop Combi reagent broadcaster. The plates were incubated overnight at 32° C. A test compound was prepared by 2-fold serial dilution in 100% DMSO using a BIOMEK® 2000 liquid handler (Beckman Coulter). A dose-response curve containing 10 concentrations of the test compound was obtained. Using a BIOMEK® FX liquid handler (Beckman Coulter), 2.5 μL of the test compound was transferred from the 100% DMSO serial dilution plate to an intermediate plate containing 47.5 μL of DMEM Assay Medium containing 2% FBS, 100 IU/mL penicillin, and 100 μg/mL streptomycin and mixed. […] The tissue culture media (4 μL) containing vehicle only was transferred manually to each control cell using a 16 channel electronic pipette. […] High luminescence indicates cell survival.

[4] = tested on: SERCA; experiment: Ca-ATPase Assay (NADH-linked, enzyme-coupled ATPase assay, microsomal preparations from HEK 293 cells); assay type: biochemical, human; details: pH 7.0, 5 mM ATP, relative to controls
Experimental: A Ca-ATPase assay was performed using microsomal preparations from HEK 293 cells at a series of calcium concentrations corresponding to the physiological range, relative to controls. The ATP hydrolysis rate was measured over a range of calcium concentrations in the presence of test compounds using an NADH-linked, enzyme-coupled ATPase assay adapted for 96-well microplates, with Vmax determined by fitting the ATPase calcium-dependence to the Hill function. Each well contained 2 μg or 7 μg of SR vesicles (optimized for skeletal or cardiac SR, respectively), 50 mM MOPS (pH 7.0), 100 mM KCl, 5 mM MgCl2, 1 mM EGTA, 0.2 mM NADH, 1 mM phosphoenol pyruvate, 5 IU pyruvate kinase, 5 IU lactate dehydrogenase, and 3.5 μg/mL A23187 (a calcium ionophore). CaCl2 was added to set free [Ca^2+] to the specific values. The assay was started upon addition of ATP at a final concentration of 5 mM, and read in a SpectraMax Plus microplate spectrophotometer. The results are summarized in Table 4, where A represents an increase in SERCA Vmax greater than 50% and B represents a value greater than 10% and less than 50%.

## Cc1ccc2cccc(-c3nc(-c4ccc(OC(C)C)cc4)no3)c2n1 [Compound B1, 3-(4-Isopropoxyphenyl)-5-(2-methylquinolin-8-yl)-1,2,4-oxadiazole]
[1]
  Glucose level reduction: B (a 21-30% reduction in blood glucose)
[2]
  viability at 20 µM: 10 to 50%
[3]
  EC50: 1 to 10 µM

## Cc1ccc2cccc(-c3nc(-c4ccc(Cl)cc4)no3)c2n1 [Compound B4, 3-(4-Chlorophenyl)-5-(2-methylquinolin-8-yl)-1,2,4-oxadiazole]
[1]
  Glucose level reduction: C (a greater than 30% reduction in blood glucose levels)
[2]
  viability at 20 µM: > 50%
[3]
  EC50: < 1 µM
[4]
  SERCA Vmax Increase: A (an increase in SERCA Vmax greater than 50%)

## Cc1ccc2cccc(-c3nc(-c4ccc(Br)s4)no3)c2n1 [Compound B2, 3-(5-Bromothiophen-2-yl)-5-(2-methylquinolin-8-yl)-1,2,4-oxadiazole]
[1]
  Glucose level reduction: B (a 21-30% reduction in blood glucose)
[2]
  viability at 20 µM: 10 to 50%
[3]
  EC50: 1 to 10 µM

## Cc1ccc2cccc(-c3nc(-c4cc(Br)cs4)no3)c2n1 [Compound B3, 3-(4-Bromothienyl-2-yl)-5-(2-methylquinolin-8-yl)-1,2,4-oxadiazole]
[1]
  Glucose level reduction: A (a 10-20% reduction in blood glucose)
[2]
  viability at 20 µM: > 50%
[3]
  EC50: 1 to 10 µM
